Measured values reported in article PMC6900522 (Proceedings of the National Academy of Sciences of the …, 2019).

T1: GUN1-PS (Arabidopsis thaliana, UniProt Q9SIC9)
T1 sequence (Q9SIC9 232-918): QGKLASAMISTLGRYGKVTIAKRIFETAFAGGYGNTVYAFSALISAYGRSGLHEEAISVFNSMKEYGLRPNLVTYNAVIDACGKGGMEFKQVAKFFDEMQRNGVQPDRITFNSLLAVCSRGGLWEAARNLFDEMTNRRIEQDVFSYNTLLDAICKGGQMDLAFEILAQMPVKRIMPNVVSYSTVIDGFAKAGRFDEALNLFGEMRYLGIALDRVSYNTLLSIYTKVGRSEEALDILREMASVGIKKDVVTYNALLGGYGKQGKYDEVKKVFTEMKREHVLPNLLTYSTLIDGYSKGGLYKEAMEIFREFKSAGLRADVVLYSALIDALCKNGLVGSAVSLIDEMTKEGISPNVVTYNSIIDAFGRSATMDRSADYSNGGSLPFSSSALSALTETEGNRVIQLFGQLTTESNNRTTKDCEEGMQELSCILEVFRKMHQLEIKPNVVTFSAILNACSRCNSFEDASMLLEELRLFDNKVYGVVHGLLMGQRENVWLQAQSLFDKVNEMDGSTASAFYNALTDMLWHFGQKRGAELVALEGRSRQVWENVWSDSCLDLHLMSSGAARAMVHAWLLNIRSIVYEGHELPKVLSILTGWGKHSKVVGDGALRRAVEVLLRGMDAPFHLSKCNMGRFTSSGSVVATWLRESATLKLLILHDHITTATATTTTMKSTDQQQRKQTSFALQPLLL

B1: FC1 (Arabidopsis thaliana) (protein)
chain: CDIKERSFGESMTITNRGLSFKTNVFEQARSVTGDCSYDETSAKARSHVVAEDKIGVLLLNLGGPETLNDVQPFLYNLFADPDIIRLPRPFQFLQGTIAKFISVVRAPKSKEGYAAIGGGSPLRKITDEQADAIKMSLQAKNIAANVYVGMRYWYPFTEEAVQQIKKDKITRLVVLPLYPQYSISTTGSSIRVLQDLFRKDPYLAGVPVAIIKSWYQRRGYVNSMADLIEKELQTFSDPKEVMIFFSAHGVPVSYVENAGDPYQKQMEECIDLIMEELKARGVLNDHKLAYQSRVGPVQWLKPYTDEVLVDLGKSGVKSLLAVPVSFVSEHIETLEEIDMEYRELALESGVENWGRVPALGLTPSFITDLADAVIESLPSAEAMSNPNAVVDSEDSESSDAFSYIVKMFFGSILAFVLLLSPKMFHAFRNL

How the values were obtained:
GUN1-PS = molecular target: T1, GUN1-PS; test: differential absorption spectrophotometry; assay type: binding
purified protein = substrate: C=CC1=C(C)c2cc3[nH]c(cc4nc(cc5[nH]c(cc1n2)c(C)c5CCC(=O)O)C(CCC(=O)O)=C4C)c(C)c3C=C; test: purified protein; details: Zn chelation; without GUN1-PS

Row | Molecule | Kd (GUN1-PS) [µM] | Km (purified protein) [µM]
1 | C=CC1=C(C)c2cc3[nH]c(cc4nc(cc5[nH]c(cc1n2)c(C)c5CCC(=O)O)C(CCC(=O)O)=C4C)c(C)c3C=C [Proto IX] | 4.42 ± 0.56 | –
2 | C=CC1=C(C)C2=Cc3c(C=C)c(C)c4[n]3[Fe]([Cl])[n]3c(c(C)c(CCC(=O)O)c3=CC3=NC(=C4)C(C)=C3CCC(=O)O)=CC1=N2 [hemin] | 6.08 ± 1.11 | –
3 | B1 | – | 26.5
